Entries after “also recorded” stand apart in the source; their conditions may differ. Like-named read-outs stand apart in the source and are kept apart here. Values belong to the molecule of their own block, whether it stands above or below them.
Tests used:
EAE = settings: in vivo; cited from earlier work
MMP-9 = experiment: MMP enzyme activity in gelatin zymography, test agent in wash and reaction buffer; assay type: biochemical, Baby Hamster Kidney (BHK) cells and human T lymphocytes; settings: agent in incubation buffers during zymogram development; MMP-9 from BHK cells or T lymphocytes
From the text: The analysis of cell conditioned medium in zymography is a reflection of the amount of MMPs that was produced by the particular culture. […] An inhibitor of MMP activity prevents gelatin degradation by gelatinases and the resultant size of the band of gelatinases would be smaller as compared to that obtained in the absence of inhibitors.

[1] = test system: T lymphocyte - U937 co-culture; settings: pretreatment of the PMA/IFNγ-treated U937 cells instead of T lymphocytes
Description: (§1) Cells were left for 69 h at 37° C., then collected, counted and resuspended in fresh AIM-V at density of 500,000 cells per ml. […] Thereafter, 500 μl (250,000 cells) of the suspension was taken for migration assays described below. Alternatively, 100 μl (50,000 cells) of cell suspension was added to each individual well of a 96-well plate already containing microglia or U937 monocytoid cells (see below).
A human promonocytoid cell line, U937, was also employed. Members of this cell line become microglia-like, as assessed by morphology and expression of cell surface molecules, when treated sequentially with 50 ng/ml of a protein kinase C activator, phorbol-12-myristate-13-acetate (PMA) (time 0–48) and 100 U/ml interferon-γ (IFNγ) (from 48–72 h).
Cells were used 1–3 days after the IFNγ treatment. As with microglia, 50,000 T lymphocytes in AIM-V was added to individual wells of a 96-well plate already containing 25,000 PMA/IFNγ-treated U937 cells, and conditioned medium was collected after 24 h of co-cultures.
(§2) Cytokine protein levels in the conditioned medium of microglia-T lymphocyte co-cultures were measured using enzyme-linked immunoabsorbent assay (ELISA) kits bought from BioSource International (Montreal, Canada).

MHC class II molecules = settings: irrespective of MHC restriction, dose-dependent; cited from earlier work
[2] = test system: CXCR3 and CXCR4 on U937 cells; settings: 25 μg/ml, 1 or 3 days
From the text: Chemokine and chemokine receptor expression are currently recognized to be important mechanisms that regulate the influx of leukocytes into the CNS. Notable is the up-regulation of the chemokine IP-10 and its receptor CXCR3 in the lesions of multiple sclerosis patients (74).

T lymphocytes [3] = settings: for total number of cells after 72 h: control 24±2
Description: (§3) Heparinized blood was collected from normal volunteers, and subjected to Ficoll-Hypaque (Pharmacia Biotech, Mississauga, Ontario) centrifugation to obtain peripheral blood mononuclear cells (PEMNCs) as described previously (15). After two washes, cells were suspended at a density of 1–2 million/ml in horizontal T-25 flasks (Nunc, Becton Dickinson, Mississauga, Ontario) in the serum free medium, AIM-V (GIBCO/BRL), to which 1 ng/ml of an anti-CD3 antibody (OKT3, compliments of Jack Antel, Montreal, Canada) was added. Three hours after the anti-CD3 addition, the T-25 flasks were stood upright from their horizontal position in order to […] monocytes that had adhered. Floating cells, which were mostly lymphocytes, were left for a period of 72 hours at 37° C. […] Henceforth, given that the majority of cells in the MNC population are T lymphocytes, these will be referred to as T lymphocytes.
as §1

experimental GVHD = settings: higher doses and/or more frequent administration; mice; cited from earlier work
[4] = test system: MMP-9 production by T lymphocytes; experiment: MMP-9 production by anti-CD3 activated T lymphocytes (zymography of conditioned medium); assay type: cell-based, human; settings: 25 μg/ml, for 1, 2 or 3 d
Description: as §3, §1

T lymphocytes [5] = experiment: Migration assay across fibronectin-coated Boyden chamber; assay type: cell-based, human
Description: as §1
To address the migration capacity of T lymphocytes, 2×10^5 T lymphocytes in 500 μl of 2.5% fetal calf serum (FCS) containing AIM-V were seeded into the top compartment of a Boyden chamber (Collaborative Biomedical Products, Bedford, Md.). This chamber consists of two compartments separated by a polycarbonate membrane filter (9 mm in diameter, with 3 μm pores) precoated on its upper surface with fibronectin. Fibronectin was employed to simulate the basal lamina.
The bottom compartment of the migration chamber contained 10% FCS-supplemented AIM-V; the higher concentration of FCS in the bottom chamber served as a directional gradient (77). After 5 h at 37° C., the content of the lower chamber was collected, and the number of migrated T lymphocytes was counted with the Coulter Counter Z1.

[6] = test system: MMP-9 production by monocytes; settings: after 1 day of treatment
Description: To produce monocyte-enriched cultures, 2×10^5 PBMC were suspended in 100 μl of AIM-V medium and placed into each well of a 96-well plate. One hour after, floating cells were removed to leave behind adherent monocytes. Fresh 100 μl of AIM-V was added per well and cultures were kept at 37° C.
Supernatant was collected, mixed in a 3.1 ratio (v/v) with 4× gel-loading SDS buffer, and used in zymographic assays. Similarly, for monocytes in wells of 96-well plates, conditioned medium was collected, microfuged, and mixed with 4× gel-loading SDS buffer.
Zymography is essentially SDS-PAGE except that gelatin is also added to the gel (77, 82). After proteins were resolved based on molecular weight in SDS-PAGE, the gel was washed in a Triton X-100 buffer in order to remove SDS which thus allows protein renaturation. In a calcium-containing “reaction buffer” (77), gelatinases (MMP-2 and -9) degraded gelatin in their immediate vicinity (other members of MMPs would also be detected if present in high amounts). Following staining in Coommasie blue, which binds all proteins, and destaining , areas containing gelatinases appeared as clear bands against a dark background, since the gelatin in its immediate vicinity has been degraded. The size of the MMP bands was a reflection of the amount of MMP that was produced by cells, and this was documented by NIH image analysis software.

T-cell responses to MBP = settings: dose-dependent; cited from earlier work
[7] = test system: lymphocytes from relapsing-remitting multiple sclerosis patients; settings: patients on Copolymer 1 compared to untreated multiple sclerosis patients; cited from earlier work
[8] = test system: T lymphocyte - adult human microglia co-culture; settings: added at the time of co-culture instead of pretreatment
Description: as §1
Adult human microglia were isolated from the resected brain tissue of patients undergoing surgical resection to treat intractable epilepsy. […] Cells were used for interactions with T lymphocytes in a manner identical to that described for their fetal counter parts.
as §2

Molecule: C=CC[C@H](C(=O)NO)[C@@H](CC(C)C)C(=O)N[C@@H](Cc1ccccc1)C(=O)NC [BB-1101]
incidence and severity of EAE (EAE): alleviate

Molecule: CNC(=O)[C@H](Cc1c[nH]c2ccccc12)NC(=O)[C@@H](CC(=O)NO)CC(C)C [GM6001]
incidence and severity of EAE (EAE): alleviate

inhibition of MMP-9 enzymatic activity (size of gelatinase band in zymogram) (MMP-9): inhibit MMP activity
Molecule: TIMP-1: positive control shown to inhibit MMP activity in the zymography assay

Molecule: CNC(=O)[C@@H](NC(=O)[C@@H](CC(=O)NO)CC(C)C)C(C)(C)C [Ro31-9790]
incidence and severity of EAE (EAE): alleviate

Molecule: L-glutamic acid polymer with L-alanine, L-lysine and L-tyrosine, acetate (salt) [Copolymer 1]
inhibition of MMP-9 enzymatic activity (size of gelatinase band in zymogram) (MMP-9): dose-dependently reduced; also recorded: inhibits | cytokine production in subsequent T lymphocyte - U937 interactions [1]: did not influence | binding to antigen presenting cells / MHC class II molecules (MHC class II molecules): binds | CXCR4 expression on U937 cells [2]: does not affect | number or size of T lymphocyte aggregates after anti-CD3 treatment (proliferation) (T lymphocytes [3]): does not decrease | total number of cells after 72 h (T lymphocytes [3]; 5 μg/ml): 26±1 ×10^3 | total number of cells after 72 h (T lymphocytes [3]; 25 μg/ml): 26±2 ×10^3 | total number of cells after 72 h (T lymphocytes [3]; 50 μg/ml): 22±1 ×10^3 | experimental GVHD (experimental GVHD): prevent | production of MMP-9 by T lymphocytes compared to controls [4]: did not affect | migration rate of pre-treated T lymphocytes versus controls (T lymphocytes [5]; 10 ng/ml MCP-1 or MCP-3 in bottom chamber as chemotactic signal): did not differ | migration of T lymphocytes across fibronectin barrier compared to controls (T lymphocytes [5]; 25 μg/ml pretreatment for 1, 2 or 3 days): did not inhibit; also recorded: did not affect | transmigration of activated T lymphocytes (T lymphocytes [5]; 3-day pretreatment, various concentrations 1 to 50 μg/ml): did not affect | monocyte production of MMP-9 [6]: unaffected | in vitro T-cell responses to MBP (T-cell responses to MBP): inhibited | capacity of lymphocytes to transmigrate across a fibronectin barrier [7]: significantly reduced | reducing effect on cytokine production [8]: does not occur

inhibition of MMP-9 enzymatic activity (size of gelatinase band in zymogram) (MMP-9): inhibit MMP activity
Molecule: c1cnc2c(c1)ccc1cccnc12 [phenanthroline]
